According to patent US11834698B2, “Process for determining enzyme activity in a cell by activity-based reporter gene technology (ABRGT)” (INDIAN INSTITUTE OF SCIENCE EDUCATION AND RESEARCH, priority 2018, dated 2023):

Assays:
cathepsin B GFPspark = biological target: T1, cathepsin B GFPspark (Homo sapiens, UniProt P07858); experiment: AbRGT FRET imaging / acceptor photobleaching, cathepsin B GFPspark in HEK-293 cells; type: cell-based; details: HEK-293, inhibitor 50 μM 1 h before probe 1 labelling, STS 4 h
T1 construct: GFPspark (C); host or cells: HEK-293
Protocol: FIG. 20 depicts confocal images of HEK-293 cells in GFP, FRET and Rh channel Cathepsin B GFPspark transfected HEK-293 cells were treated with STS (1 μM) for 4 h and labelled (a) (i) with or (a) (iv) without probe 1. Cells were pre-treated with (a) (ii) Z-VAD-FMK (50 μM) or (a) (iii) E-64 (50 μM) inhibitor 1 h before the probe 1 labelling. (b) Quantification of the change in GFPS fluorescence intensity after rhodamine photobleaching in both unbleached control region and rhodamine bleached region (ROI), using acceptor photo-bleaching method. Error bar represents the s.e.m for n=10 cells (*P<0.00001). Scale bar, 10 μm. a.u., arbitrary units.
(§1) Plasmids and transient transfection: GFPspark tagged plasmids; caspase-3 GFPspark tag (Cat: HG10050-ACG), caspase-7 GFPspark tag (HG10049-ACG), caspase-8 GFPspark (HG10078-ACG), caspase-9 GFPspark (HG11151-ACG) and cathepsin B GFPspark (HG10483-ACG) were procured from Sino Biological. For transfection, cells were seeded in a 6-well plate at a density of 0.4 million cells/well. At 60-70% confluency, cells were transiently transfected for 24 h at 37° C. with 1 μg of the GFPspark tagged plasmid DNA construct mixed with 5 μL of Lipofectamine 2000 (Invitrogen) according to the manufacturer's instructions. 24 h post-transfection, cells were visualized under the GFP filter for GFPspark expression under fluorescence microscope at 10× magnification.
(§2) Labelling of active caspases in apoptotic cells with FABP: After 24 h of transfection, cells were treated with STS (1 μM) drug or TRAIL (1 μg/ml) for apoptotic induction and incubated for 2, 4, 6 and 8 h at 37° C. in a humidified atmosphere of 5% CO2/95% air. Cells were gently scraped off from the surface at the end of apoptotic induction and centrifuged at 3000 rpm for 5 min. The cell pellet was resuspended in 300 μL of fresh DMEM containing 1 μM of probe for probe 2 and incubated for additional 2 h at 37° C. in a humidified atmosphere of 5% CO2. Cells were again centrifuged at 3000 rpm for 5 mins, and the supernatant was decanted. Cells were washed with 1×PBS, thrice finally resuspended in 20 μL of 1×PBS. The cell suspension was put on a slide, and a coverslip was placed over it. It was left for air drying. Slides were then imaged for GFP, FRET and rhodamine fluorescence signals under confocal microscopy.
Inhibitor assay: Cells were pre-treated with 50 μM of Z-VAD-FMK or Q-VD-OPh or E-64 inhibitor 1 h before probe 1 labelling and incubated for 1 h at 37° C. in a humidified atmosphere of 5% CO2. Cells were gently scraped off from the surface at the end of inhibitor treatment and centrifuged at 3000 rpm for 5 min Cells were then labelled with the probe 1 as described in the previous section.
Fluorescence imaging studies, FRET procedure: Images were collected on Zeiss LSM710 confocal microscope with 25 mW argon laser using Zen10 software. The laser was tuned to lines at 488 nm (excitation laser for GFPspark) and 561 nm (excitation laser for rhodamine) Cells were examined with a 40× 1.3 NA Zeiss oil immersion objective and 2.4× zoom. Images were collected in the three channels; GFP channel, argon laser tuned at 488 nm with 2% laser intensity and fluorescence emission was collected in emission range of 490-550 nm; rhodamine channel, argon laser tuned to 561 nm laser with 2% laser intensity and fluorescence emission was collected in range 550-650 nm and FRET channel with excitation laser of GFPSPARK channel and emission range of rhodamine channel. […]

caspase-3/7 = experiment: Substrate-based reporter assay, CFP-DEVDR-YFP cleavage, live cell FRET
Protocol: FIGS. 8A and 8B depict the time course of cleavage for CFP-DEVDR-YFP plasmid. Time is relative to the first frame taken after 8 h of STS treatment. […] The percentage rise in the CFP/YFP intensity ratio was 47%. Rise in CFP/YFP intensity ratio is an indirect measure of caspase-3/7 activation.
To rule out that the obtained FRET signal in [FIG. 2b (i)] is not because of random physical interaction between GFPspark and rhodamine dye, MCF-7 cells were transfected with a plasmid encoding for enhanced green fluorescent protein (EGFP). EGFP transfected MCF-7 cells were treated with STS (1 μM) for 4 h, labelled with the probe 1. […] In-gel fluorescence assay was also performed to validate the multiple off-targets labelling of probe 1 which has also been shown in the previous reports. […] The calculated FRET efficiency for (n=15 cells) is 35±1%. […] Caspase-3 activation was also monitored using probe 2 as fABP which is different from probe 1 in terms of peptide recognition sequence; DEVD in exchange for VAD as DEVD peptide sequence is more specific for caspases as compared to VAD. Probe 2 yielded a similar pattern of fluorescence signal in GFPspark, FRET and Rh channel as that of probe 1 [FIG. 7(a)]. The calculated FRET efficiency was 35% [FIG. 7(b)]. […] Acceptor photo-bleaching method was done to confirm the FRET signal, and the calculated FRET efficiency was 32±2% [FIG. 10 (a & b)].

[1] = tested on: cleaved caspase-3 p17 fragment; experiment: Western blot of cleaved caspase-3 p17 fragment in HeLa cells; type: cell-based; details: STS 1 μM, after 12 h, 18 and 24 h
Protocol: FIG. 9 depicts a western blot analysis of cleaved caspase-3 p17 fragment after 18 and 24 h of STS (1 μM) treatment in HeLa cells. Lysate loading was done in triplicates. Double headed arrow representing 3 lanes with the same sample.
To rule out that the obtained FRET signal in [FIG. 2b (i)] is not because of random physical interaction between GFPspark and rhodamine dye, MCF-7 cells were transfected with a plasmid encoding for enhanced green fluorescent protein (EGFP). EGFP transfected MCF-7 cells were treated with STS (1 μM) for 4 h, labelled with the probe 1. […] In-gel fluorescence assay was also performed to validate the multiple off-targets labelling of probe 1 which has also been shown in the previous reports. […] The calculated FRET efficiency for (n=15 cells) is 35±1%. […] Caspase-3 activation was also monitored using probe 2 as fABP which is different from probe 1 in terms of peptide recognition sequence; DEVD in exchange for VAD as DEVD peptide sequence is more specific for caspases as compared to VAD. Probe 2 yielded a similar pattern of fluorescence signal in GFPspark, FRET and Rh channel as that of probe 1 [FIG. 7(a)]. The calculated FRET efficiency was 35% [FIG. 7(b)]. […] To confirm the reported results, the cleaved caspase-3 p17 fragment in immunoblotting was also detected by using active caspase-3 p17 antibody after […] of STS (1 μM) treatment [FIG. 9]. […]

caspase-3 GFPspark = biological target: T2, caspase-3 GFPspark (Homo sapiens, UniProt P42574); experiment: AbRGT FRET imaging / acceptor photobleaching, caspase-3 GFPspark in MCF-7 cells; type: cell-based; design: host or cells: MCF-7, HeLa, HEK-293; details: MCF-7, STS 1 μM 4 h
T2 sequence (P42574 29-175 limits assumed): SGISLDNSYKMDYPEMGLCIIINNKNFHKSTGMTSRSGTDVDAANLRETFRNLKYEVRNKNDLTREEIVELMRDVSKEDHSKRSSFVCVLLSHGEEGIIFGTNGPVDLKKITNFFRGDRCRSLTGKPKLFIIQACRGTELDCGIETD
T2 sequence (P42574 176-277 limits assumed): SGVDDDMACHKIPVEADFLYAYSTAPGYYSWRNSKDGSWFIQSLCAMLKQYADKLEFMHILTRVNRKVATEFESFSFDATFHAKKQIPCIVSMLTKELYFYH
Protocol: FIG. 2 depicts (a) a schematic representation of AbRGT in determining the specific activation of caspase-3 GFPspark tagged enzyme by FRET effect utilizing Rh-VAD-FMK (probe 1). (b) The fluorescence signal was collected in GFP, FRET and Rhodamine (Rh) channels. MCF-7 cells transfected with caspase-3 GFPspark treated with (i) 1 μM STS for 4 h or (ii) 1 μg/ml TRAIL for 5 h and then labelled with probe 1. (iii) Un-transfected MCF-7 cells were treated with 1 μM STS for 4 h and then labelled with the probe 1. MCF-7 cells transfected with enhanced green fluorescent protein (EGFP) plasmid treated (iv) with 1 μM STS or (v) without STS for 4 h and then labelled with probe 1, scale bar, […]. (c) FRET validation between GFPspark and rhodamine fluorophore using the acceptor photobleaching method. Images for GFP and rhodamine fluorescence signals were collected in GFP and FRET channels pre- and post-bleaching of rhodamine signals. (d) Quantification of change in GFP fluorescence intensity after rhodamine photo-bleaching in both unbleached control region and rhodamine bleached region, region of interest (ROI), area under the white square. Error bar represents the s.e.m for n=15 cells (*P<0.00001). Scale bar, 10 μm. a.u., arbitrary units.
FIGS. 6A and 6B depict time dependent activation of caspase-3 GFPspark in MCF-7 cells upon STS (1 μM) induction. MCF-7 cells transfected with 2 μg of caspase-3 GFPspark plasmid and treated with 1 μM of STS for 2, 6, and 8 h. Cells were then labelled with the probe 1 for an additional 2 h. […] FRET validation between GFPspark and rhodamine fluorophore using the acceptor photobleaching method for the MCF-7 cells with STS induction for 2, 6 and 8 h. I=intensity (a.u.), arbitrary units. The calculated FRET efficiency for 2, 6 and 8 h are 38, 43, and 36% respectively.
FIGS. 7A and 7B depict applying AbRGT for specific detection of active caspase-3 GFPspark using the Rh-DEVD-FMK (probe 2). Caspase-3 GFPspark (2 μg) overexpressing MCF-7 cells were treated with 1 μM of STS for 4 h and labelled with the probe 2 (1 μM). […] The rise in GFPspark intensity after rhodamine photobleaching in the background is insignificant as compared to the ROI, i.e., 68 a.u., with a calculated FRET efficiency of 35%.
FIG. 12 depicts confocal images of MCF-7 cells in GFP, FRET and Rh channel. Caspase-3 GFPspark transfected MCF-7 cells were treated with STS for 4 h and labelled (a) with or (b) without probe 1. Cells were pre-treated with (c) Z-VAD-FMK (50 μM) and (d) Q-VD-OPh (50 μM) pan-caspase inhibitors 3 h before the probe labelling.
as §1
as §2, with “Cells were washed with 1×PBS, thrice finally resuspended in 20 μL of 1×PBS. The cell suspension was put on a slide, and a coverslip was placed over it. It was left for air drying. Slides were then imaged for GFP, FRET and rhodamine fluorescence signals under confocal microscopy.” left out

With `CC(C)C[C@H](NC(=O)[C@H]1O[C@@H]1C(=O)O)C(=O)NCCCCN=C(N)N` [E-64] the “effect of inhibitor on FRET signal” value (cathepsin B GFPspark) was “abolished” and the “signal in Rh channel in presence of inhibitor” value (cathepsin B GFPspark) was “sharp, intense punctate labelling was observed”.
For `CN[C@@H]1C[C@H]2O[C@@](C)([C@@H]1OC)n1c3ccccc3c3c4c(c5c6ccccc6n2c5c31)C(=O)NC4` [STS, staurosporine], the “percentage rise in the CFP/YFP intensity ratio” value (caspase-3/7; CFP-DEVDR-YFP plasmid, from 8 h of STS treatment) was 47%, the “time of caspase-3/7 activation after treatment” value (caspase-3/7; STS 1 μM, live cell imaging) was 10 to 12 h and the “cleaved caspase-3 p17 fragment in immunoblotting” value [1] was “detected”.
Rh-DEVD-FMK [probe 2] was tested, and the “rise in GFP intensity after rhodamine photobleaching in ROI” value (caspase-3 GFPspark; probe 1 μM) was 68 a.u and the “calculated FRET efficiency” value (caspase-3 GFPspark; probe 1 μM 2 h, acceptor photobleaching) was 35%.
